In patent US11905294B2, “Imidazo[1,5-a]pyrazine derivatives as PI3Kδ inhibitors” (BEIGENE, LTD., priority 2017, dated 2024) one finds IC50 data, which are given here for 25 molecules.

SMILES strings stand for the structures.

Common to all, as to format: biochemical
The target in experiment [1] is PI3K (p110δ/p85α) (Homo sapiens, UniProt O00329). The experiment is described as follows: PI3Kδ assay (ADP-Glo Kinase Assay). As to conditions: recombinant enzyme; IC50 (nM) or max inhibition (%) at 0.5 μM. The method, then: Compounds disclosed herein were tested for inhibition of PI3Kδ kinase activity using commercial ADP-Glo™ Kinase Assay (Promega Corporation) and following the manufacture's instruction. Briefly, recombinant PI3K (p110δ/p85α) enzyme, lipid kinase substrate and a serial dilution of compounds disclosed herein were incubated for 0.5 hr at room temperature. ATP was added to initiate the kinase reaction. After incubation for 1 hr at room temperature, ADP-Glo™ reagent was added to terminate the kinase reaction and deplete the remaining ATP. After incubation for 1 hr at room temperature, kinase detection reagent was added to simultaneously convert ADP to ATP and allow the newly synthesized ATP to be measured using a luciferase/luciferin reaction. After incubation for 0.5 hr at room temperature, the luminescence generated was measured on a PHERAstar FS plate reader (BMG LABTECH). The residual enzyme activity in presence of increasing concentrations of compounds was calculated based on the luminescence. The IC50 for each compound was derived from fitting the data to the four-parameter logistic equation by Graphpad Prism software.

Experiment [2] addresses PI3K (p110α/p85α) (Homo sapiens, UniProt P42336). Put plainly: PI3Kα assay (ADP-Glo Kinase Assay). To be noted: recombinant enzyme; IC50 (nM) or max inhibition (%) at 0.5 μM. On the technique in general: ADP-Glo first removes unused ATP, then detects ADP through luciferase.
For experiment [3], the target named is PI3K (p110β/p85α) (Homo sapiens, UniProt P42338). Put plainly: PI3Kβ assay (ADP-Glo Kinase Assay). As to conditions: read-out: Enzyme activity IC50 PI3Kβ.
Experiment [4] addresses PI3K (p110γ) (Homo sapiens, UniProt P48736). Put plainly: PI3Kγ assay (ADP-Glo Kinase Assay). To be noted: recombinant enzyme; IC50 (nM) or max inhibition (%) at 0.5 μM.

Sequence of PI3K (p110γ) (P48736 whole entry): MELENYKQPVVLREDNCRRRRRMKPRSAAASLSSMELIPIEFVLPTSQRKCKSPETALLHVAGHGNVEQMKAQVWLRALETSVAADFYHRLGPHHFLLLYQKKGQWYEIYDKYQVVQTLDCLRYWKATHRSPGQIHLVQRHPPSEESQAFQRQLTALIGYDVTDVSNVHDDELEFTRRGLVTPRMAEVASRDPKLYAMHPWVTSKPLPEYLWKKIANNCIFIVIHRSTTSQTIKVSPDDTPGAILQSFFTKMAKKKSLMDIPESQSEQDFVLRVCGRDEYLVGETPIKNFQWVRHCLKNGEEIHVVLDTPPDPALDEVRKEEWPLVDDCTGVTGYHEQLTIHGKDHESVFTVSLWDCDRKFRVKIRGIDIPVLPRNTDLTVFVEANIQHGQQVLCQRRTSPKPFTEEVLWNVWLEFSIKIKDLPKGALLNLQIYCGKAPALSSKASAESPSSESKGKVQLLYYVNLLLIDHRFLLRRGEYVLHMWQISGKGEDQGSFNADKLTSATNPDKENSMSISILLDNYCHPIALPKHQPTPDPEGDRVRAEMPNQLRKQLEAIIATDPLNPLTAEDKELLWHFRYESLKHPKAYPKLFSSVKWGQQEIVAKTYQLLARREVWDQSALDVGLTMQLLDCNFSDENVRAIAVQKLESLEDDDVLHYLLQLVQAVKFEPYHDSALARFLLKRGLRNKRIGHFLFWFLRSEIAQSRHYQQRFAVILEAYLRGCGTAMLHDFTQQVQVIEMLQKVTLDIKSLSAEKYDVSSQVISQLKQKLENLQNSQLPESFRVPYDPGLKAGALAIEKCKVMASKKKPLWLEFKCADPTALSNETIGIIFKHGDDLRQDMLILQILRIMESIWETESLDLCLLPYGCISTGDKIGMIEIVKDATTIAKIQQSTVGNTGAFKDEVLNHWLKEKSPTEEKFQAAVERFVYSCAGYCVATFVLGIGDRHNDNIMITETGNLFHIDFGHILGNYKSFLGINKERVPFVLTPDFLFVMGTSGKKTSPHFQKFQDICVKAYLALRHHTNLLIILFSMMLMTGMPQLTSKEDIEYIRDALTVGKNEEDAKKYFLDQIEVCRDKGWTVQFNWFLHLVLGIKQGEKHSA
Sequence of PI3K (p110δ/p85α) (O00329 whole entry): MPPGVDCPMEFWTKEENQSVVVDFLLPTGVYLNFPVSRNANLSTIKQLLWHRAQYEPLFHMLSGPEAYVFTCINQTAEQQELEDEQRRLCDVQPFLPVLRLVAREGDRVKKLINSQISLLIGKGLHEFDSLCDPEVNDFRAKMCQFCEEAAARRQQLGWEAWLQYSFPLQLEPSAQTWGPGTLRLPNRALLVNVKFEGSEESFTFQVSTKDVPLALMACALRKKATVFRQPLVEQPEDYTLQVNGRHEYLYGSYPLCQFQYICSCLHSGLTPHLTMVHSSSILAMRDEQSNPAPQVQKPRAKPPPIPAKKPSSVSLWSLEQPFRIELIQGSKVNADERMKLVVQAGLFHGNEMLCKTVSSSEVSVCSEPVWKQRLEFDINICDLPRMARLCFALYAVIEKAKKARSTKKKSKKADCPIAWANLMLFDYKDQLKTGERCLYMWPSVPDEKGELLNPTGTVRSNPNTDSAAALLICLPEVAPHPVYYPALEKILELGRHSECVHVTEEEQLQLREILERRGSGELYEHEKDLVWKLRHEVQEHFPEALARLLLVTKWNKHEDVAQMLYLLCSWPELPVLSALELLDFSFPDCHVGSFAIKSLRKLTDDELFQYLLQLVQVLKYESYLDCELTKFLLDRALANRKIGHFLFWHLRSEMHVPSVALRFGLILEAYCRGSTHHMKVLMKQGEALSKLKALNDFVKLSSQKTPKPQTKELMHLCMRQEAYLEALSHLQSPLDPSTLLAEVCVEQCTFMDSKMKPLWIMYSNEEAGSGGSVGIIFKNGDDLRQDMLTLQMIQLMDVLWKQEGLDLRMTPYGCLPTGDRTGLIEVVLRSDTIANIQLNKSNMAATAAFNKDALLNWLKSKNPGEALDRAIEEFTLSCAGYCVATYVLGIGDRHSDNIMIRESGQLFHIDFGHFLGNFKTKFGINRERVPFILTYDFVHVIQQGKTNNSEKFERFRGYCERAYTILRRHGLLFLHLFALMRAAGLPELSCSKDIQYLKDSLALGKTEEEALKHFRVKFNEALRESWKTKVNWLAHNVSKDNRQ
Sequence of PI3K (p110δ/p85α) (P27986 whole entry partner): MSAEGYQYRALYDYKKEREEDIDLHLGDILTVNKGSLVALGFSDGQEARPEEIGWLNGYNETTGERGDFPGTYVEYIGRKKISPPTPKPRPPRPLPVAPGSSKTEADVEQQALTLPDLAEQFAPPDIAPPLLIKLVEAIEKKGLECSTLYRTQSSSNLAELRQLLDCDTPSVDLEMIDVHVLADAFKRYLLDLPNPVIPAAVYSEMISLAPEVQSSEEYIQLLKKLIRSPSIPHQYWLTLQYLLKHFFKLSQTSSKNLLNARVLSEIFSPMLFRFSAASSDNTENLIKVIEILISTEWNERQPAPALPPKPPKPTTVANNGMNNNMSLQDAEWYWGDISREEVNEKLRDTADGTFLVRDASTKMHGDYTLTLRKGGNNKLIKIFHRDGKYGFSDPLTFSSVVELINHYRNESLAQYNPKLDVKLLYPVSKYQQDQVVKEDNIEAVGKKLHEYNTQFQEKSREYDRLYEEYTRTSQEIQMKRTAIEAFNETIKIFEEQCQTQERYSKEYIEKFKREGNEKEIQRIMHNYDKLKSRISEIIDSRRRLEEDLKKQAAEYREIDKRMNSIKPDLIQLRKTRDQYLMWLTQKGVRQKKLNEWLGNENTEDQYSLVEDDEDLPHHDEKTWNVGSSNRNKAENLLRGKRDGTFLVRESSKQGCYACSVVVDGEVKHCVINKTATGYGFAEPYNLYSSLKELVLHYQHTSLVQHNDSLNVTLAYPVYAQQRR
Sequence of PI3K (p110α/p85α) (P42336 whole entry): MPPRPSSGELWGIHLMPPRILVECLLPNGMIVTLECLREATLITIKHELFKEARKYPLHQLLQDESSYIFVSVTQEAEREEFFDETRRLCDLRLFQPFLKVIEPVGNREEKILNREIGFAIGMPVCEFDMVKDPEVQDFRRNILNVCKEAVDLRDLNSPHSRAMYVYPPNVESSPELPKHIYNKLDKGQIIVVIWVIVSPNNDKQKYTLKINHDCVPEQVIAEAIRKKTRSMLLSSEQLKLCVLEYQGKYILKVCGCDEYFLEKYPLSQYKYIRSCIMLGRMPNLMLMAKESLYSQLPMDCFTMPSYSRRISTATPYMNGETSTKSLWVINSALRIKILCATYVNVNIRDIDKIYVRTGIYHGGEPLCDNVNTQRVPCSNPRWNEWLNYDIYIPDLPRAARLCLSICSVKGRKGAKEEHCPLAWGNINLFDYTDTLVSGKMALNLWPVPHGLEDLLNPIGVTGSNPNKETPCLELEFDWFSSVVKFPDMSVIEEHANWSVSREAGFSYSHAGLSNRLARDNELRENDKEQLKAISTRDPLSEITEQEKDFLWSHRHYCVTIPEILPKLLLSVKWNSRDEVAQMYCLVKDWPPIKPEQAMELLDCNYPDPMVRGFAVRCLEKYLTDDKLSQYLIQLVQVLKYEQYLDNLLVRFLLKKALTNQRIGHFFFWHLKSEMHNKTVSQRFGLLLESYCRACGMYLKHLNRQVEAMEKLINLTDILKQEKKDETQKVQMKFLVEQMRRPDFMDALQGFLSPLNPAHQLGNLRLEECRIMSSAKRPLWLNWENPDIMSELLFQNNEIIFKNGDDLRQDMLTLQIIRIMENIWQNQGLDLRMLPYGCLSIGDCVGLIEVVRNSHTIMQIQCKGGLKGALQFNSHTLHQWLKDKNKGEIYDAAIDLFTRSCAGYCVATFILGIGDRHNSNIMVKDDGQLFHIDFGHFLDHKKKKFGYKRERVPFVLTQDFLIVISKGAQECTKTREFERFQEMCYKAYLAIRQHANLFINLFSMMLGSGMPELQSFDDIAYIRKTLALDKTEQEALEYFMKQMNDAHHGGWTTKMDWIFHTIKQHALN
Sequence of PI3K (p110α/p85α) (P27986 whole entry partner): as the sequence (P27986 whole entry partner) above
Sequence of PI3K (p110β/p85α) (P42338 whole entry): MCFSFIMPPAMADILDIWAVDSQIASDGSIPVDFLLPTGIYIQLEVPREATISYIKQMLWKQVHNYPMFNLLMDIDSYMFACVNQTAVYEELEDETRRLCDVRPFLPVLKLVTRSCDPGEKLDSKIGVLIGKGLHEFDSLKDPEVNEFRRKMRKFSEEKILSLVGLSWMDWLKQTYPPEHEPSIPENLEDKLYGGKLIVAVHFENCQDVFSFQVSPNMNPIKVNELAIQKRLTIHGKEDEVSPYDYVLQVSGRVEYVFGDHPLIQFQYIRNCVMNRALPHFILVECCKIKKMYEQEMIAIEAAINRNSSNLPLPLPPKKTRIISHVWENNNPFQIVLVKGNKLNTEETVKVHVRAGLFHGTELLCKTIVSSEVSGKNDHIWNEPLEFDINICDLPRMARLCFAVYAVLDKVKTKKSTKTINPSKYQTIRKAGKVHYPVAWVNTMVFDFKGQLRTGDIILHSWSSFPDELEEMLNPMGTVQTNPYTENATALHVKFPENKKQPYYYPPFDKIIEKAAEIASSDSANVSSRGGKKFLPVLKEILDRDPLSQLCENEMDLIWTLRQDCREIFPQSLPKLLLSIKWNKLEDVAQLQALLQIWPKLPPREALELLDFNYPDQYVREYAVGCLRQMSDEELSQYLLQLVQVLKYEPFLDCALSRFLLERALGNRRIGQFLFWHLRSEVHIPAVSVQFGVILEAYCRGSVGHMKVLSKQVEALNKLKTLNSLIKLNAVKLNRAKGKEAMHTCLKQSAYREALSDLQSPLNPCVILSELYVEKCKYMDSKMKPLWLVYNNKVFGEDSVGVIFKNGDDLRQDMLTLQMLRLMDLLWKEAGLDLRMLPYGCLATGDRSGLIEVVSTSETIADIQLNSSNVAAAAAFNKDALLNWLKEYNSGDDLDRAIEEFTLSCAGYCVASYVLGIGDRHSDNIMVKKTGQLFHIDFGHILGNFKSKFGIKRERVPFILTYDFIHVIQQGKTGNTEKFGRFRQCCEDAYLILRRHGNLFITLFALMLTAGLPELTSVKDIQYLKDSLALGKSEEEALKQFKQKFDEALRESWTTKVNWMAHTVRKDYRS
Sequence of PI3K (p110β/p85α) (P27986 whole entry partner): as the sequence (P27986 whole entry partner) above

Consider `Cc1nc(C(C)c2cc(Cl)c(F)c(C(=O)N3CCOCC3)c2OC(C)C)n2ccnc(N)c12` (single isomer, unassigned) [Compound 4A], for which the IC50 in experiment [1] was 1 nM; in experiment [2] it was 13000 nM; in experiment [3], 11 µM; in experiment [4], 2000 nM.

For the molecule `Cc1nc(C(C)c2cc(Cl)c(F)c(C(=O)N3CCOCC3)c2OC(C)C)n2ccnc(N)c12` (single isomer, unassigned) [Compound 4B], the IC50 in experiment [1] was above 1000 nM.

Consider `Cc1nc(C(C)c2cc(Cl)c(F)c(C(=O)N3CCC(F)(F)CC3)c2OC(C)C)n2ccnc(N)c12` (single isomer, unassigned) [Compound 13A], for which the IC50 in experiment [1] was 3 nM; in experiment [2] it was 20000 nM; in experiment [3] it was above 50 µM; in experiment [4] it was 9300 nM.

In the case of `Cc1nc(C(C)c2cc(Cl)c(F)c(C(=O)N3CCC(F)(F)CC3)c2OC(C)C)n2ccnc(N)c12` (single isomer, unassigned) [Compound 13B], the IC50 in experiment [1] is above 1000 nM.

For the molecule `Cc1nc(C(C)c2cc(Cl)c(F)c(C(=O)N[C@H]3CC[C@@H](O)C3)c2OC(C)C)n2ccnc(N)c12` (single isomer, unassigned) [Compound 14A], the IC50 in experiment [1] is 1.4 nM; in experiment [2], 18000 nM; in experiment [3], 13 µM; in experiment [4] it was 7900 nM.

Regarding `Cc1nc(C(C)c2cc(Cl)c(F)c(C(=O)N[C@H]3CC[C@@H](O)C3)c2OC(C)C)n2ccnc(N)c12` (single isomer, unassigned) [Compound 14B], the IC50 in experiment [1] was found to be 320 nM.

Turning to `Cc1nc(C(C)c2cc(Cl)c(F)c(C(=O)N3CC(C(=O)O)C3)c2OC(C)C)n2ccnc(N)c12` (stereo not shown) [Compound 1, 1-(3-(1-(8-amino-1-methylimidazo[1,5-a]pyrazin-3-yl)ethyl)-5-chloro-6-fluoro-2-isopropoxybenzoyl)azetidine-3-carboxylic acid], the IC50 in experiment [1] was 9.7 nM; in experiment [2] it was above 50000 nM; in experiment [3] it was above 50 µM; in experiment [4], 9800 nM.

Turning to `Cc1nc(C(C)c2cc(Cl)c(F)c(C(=O)NC3(C(=O)O)CC3)c2OC(C)C)n2ccnc(N)c12` (stereo not shown) [Compound 2, 1-(3(1-(8-amino-1-methylimidazo[1,5-a]pyrazin-3-yl)ethyl)-5-chloro-6-fluoro-2-isopropoxybenzamido)cyclopropane-1-carboxylic acid], the IC50 in experiment [1] is 14 nM; in experiment [2] it was above 50000 nM; in experiment [3], above 50 µM; in experiment [4], 5500 nM.

For the molecule `Cc1nc(C(C)c2cc(Cl)c(F)c(C(=O)N3CC(O)C3)c2OC(C)C)n2ccnc(N)c12` (stereo not shown) [Compound 3, (3-(1-(8-amino-1-methylimidazo[1,5-a]pyrazin-3-yl)ethyl)-5-chloro-6-fluoro-2-isopropoxyphenyl)(3-hydroxyazetidin-1-yl)methanone], the IC50 in experiment [1] turned out to be 6.3 nM; in experiment [2], 49000 nM; in experiment [3], 34 µM; in experiment [4], 19000 nM.

Take `Cc1nc(C(C)c2cc(Cl)c(F)c(C(=O)N3CCOCC3)c2OC(C)C)n2ccnc(N)c12` (stereo not shown) [Compound 4, (3-(1-(8-amino-1-methylimidazo[1,5-a]pyrazin-3-yl)ethyl)-5-chloro-6-fluoro-2-isopropoxyphenyl)(morpholino)methanone]: the IC50 came to 1.9 nM in experiment [1], 25000 nM in experiment [2], 24 µM in experiment [3] and 3100 nM in experiment [4].

In the case of `Cc1nc(C(C)c2cc(Cl)c(F)c(C(=O)NC3(CO)CC3)c2OC(C)C)n2ccnc(N)c12` (stereo not shown) [Compound 5, 3-(1-(8-amino-1-methylimidazo[1,5-a]pyrazin-3-yl)ethyl)-5-chloro-6-fluoro-N-(1-(hydroxymethyl)cyclopropyl)-2-isopropoxybenzamide], the IC50 in experiment [2] worked out at 56000 nM; in experiment [3], 16 µM; in experiment [4], 10000 nM.

Consider `Cc1nc([C@@H](C)c2cc(Cl)c(F)c(C(=O)NC3(CO)CC3)c2OC(C)C)n2ccnc(N)c12` [Compound 5A], for which the IC50 in experiment [2] amounted to 21000 nM; in experiment [3], 20 µM; in experiment [4] it was 6300 nM.

`Cc1nc(C(C)c2cc(Cl)c(F)c(C(=O)N3CC[C@H](O)C3)c2OC(C)C)n2ccnc(N)c12` (stereo partly drawn) [Compound 6, (3-(1-(8-amino-1-methylimidazo[1,5-a]pyrazin-3-yl)ethyl)-5-chloro-6-fluoro-2-isopropoxyphenyl)((S)-3-hydroxypyrrolidin-1-yl)methanone]: the IC50 in experiment [1] was 2.9 nM; in experiment [2] it was above 50000 nM; in experiment [3] it was above 50 µM; in experiment [4], 17000 nM.

With `Cc1nc(C(C)c2cc(Cl)c(F)c(C(=O)N3CCC(O)CC3)c2OC(C)C)n2ccnc(N)c12` (stereo not shown) [Compound 7, (3-(1-(8-amino-1-methylimidazo[1,5-a]pyrazin-3-yl)ethyl)-5-chloro-6-fluoro-2-isopropoxyphenyl)(4-hydroxypiperidin-1-yl)methanone], the IC50 was 6 nM in experiment [1], above 50000 nM in experiment [2], above 50 µM in experiment [3] and 17000 nM in experiment [4].

Regarding `Cc1nc([C@@H](C)c2cc(Cl)c(F)c(C(=O)N3CCC[C@H](O)C3)c2OC(C)C)n2ccnc(N)c12` [Compound 20, (3-((S)-1-(8-amino-1-methylimidazo[1,5-a]pyrazin-3-yl)ethyl)-5-chloro-6-fluoro-2-isopropoxyphenyl)((S)-3-hydroxypiperidin-1-yl)methanone], the IC50 in experiment [1] was 2.1 nM.

Regarding `Cc1nc([C@@H](C)c2cc(Cl)c(F)c(C(=O)N[C@H](C)c3ccccc3)c2OC(C)C)n2ccnc(N)c12` [Compound 22, 3-((S)-1-(8-amino-1-methylimidazo[1,5-a]pyrazin-3-yl)ethyl)-5-chloro-6-fluoro-2-isopropoxy-N-((R)-1-phenylethyl)benzamide], the IC50 in experiment [1] stood at 3.7 nM.

For `Cc1nc([C@@H](C)c2cc(Cl)c(F)c(C(=O)N[C@@H]3CCC[C@@H]3O)c2OC(C)C)n2ccnc(N)c12` [Compound 23, 3((S)-1-(8-amino-1-methylimidazo[1,5-a]pyrazin-3-yl)ethyl)-5-chloro-6-fluoro-N-((1R,2S)-2-hydroxycyclopentyl)-2-isopropoxybenzamide], in experiment [1], the IC50 was 9.9 nM.

For `Cc1nc([C@@H](C)c2cc(Cl)c(F)c(C(=O)N(C)C)c2OC(C)C)n2ccnc(N)c12` [Compound 32, (S)-3-(1-(8-amino-1-methylimidazo[1,5-a]pyrazin-3-yl)ethyl)-5-chloro-6-fluoro-2-isopropoxy-N,N-dimethylbenzamide], the IC50 in experiment [1] is 3.2 nM.

As to `Cc1nc([C@@H](C)c2cc(Cl)c(F)c(C(=O)N[C@]3(C)CC[C@@H](O)CC3)c2OC(C)C)n2ccnc(N)c12` [Compound 40, 3-((S)-1-(8-amino-1-methylimidazo[1,5-a]pyrazin-3-yl)ethyl)-5-chloro-6-fluoro-N-((1R,4S)-4-hydroxy-1-methylcyclohexyl)-2-isopropoxybenzamide], the IC50 in experiment [1] turned out to be 6.5 nM.

For `Cc1nc([C@@H](C)c2cc(Cl)c(F)c(C(=O)N[C@@H]3CCCC[C@@H]3O)c2OC(C)C)n2ccnc(N)c12` [Compound 48, 3-((S)-1-(8-amino-1-methylimidazo[1,5-a]pyrazin-3-yl)ethyl)-5-chloro-6-fluoro-N-((1R,2S)-2-hydroxycyclohexyl)-2-isopropoxybenzamide], in experiment [1], the IC50 turned out to be 9.1 nM.

`Cc1nc([C@@H](C)c2cc(Cl)c(F)c(C(=O)N[C@@H]3CCCC[C@H]3O)c2OC(C)C)n2ccnc(N)c12` [Compound 49, 3-((S)-1-(8-amino-1-methylimidazol[1,5-a]pyrazin-3-yl)ethyl)-5-chloro-6-fluoro-N-((1R,2R)-2-hydroxycyclohexyl)-2-isopropoxybenzamide]: in experiment [1], the IC50 was 3.9 nM.

As to `Cc1nc([C@@H](C)c2cc(Cl)c(F)c(C(=O)NC3(CN(C)C)CC3)c2OC(C)C)n2ccnc(N)c12` [Compound 54, (S)-3-(1-(8-amino-1-methylimidazo[1,5-a]pyrazin-3-yl)ethyl)-5-chloro-N-(1-((dimethylamino)methyl)cyclopropyl)-6-fluoro-2-isopropoxybenzamide], in experiment [1], the IC50 came to 11 nM.

`CO[C@H]1CCCN(C(=O)c2c(F)c(Cl)cc([C@H](C)c3nc(C)c4c(N)nccn34)c2OC(C)C)C1` [Compound 65, (3-((S)-1-(8-amino-1-methylimidazo[1,5-a]pyrazin-3-yl)ethyl)-5-chloro-6-fluoro-2-isopropoxyphenyl)((S)-3-methoxypiperidin-1-yl)methanone]: the IC50 in experiment [1] is 2.9 nM; in experiment [3], above 50 µM; in experiment [4], 6900 nM.

With `Cc1nc([C@@H](C)c2cc(Cl)c(F)c(C(=O)N3C[C@@H](C)O[C@@H](C)C3)c2OC(C)C)n2ccnc(N)c12` [Compound 67, (3-((S)-1-(8-amino-1-methylimidazo[1,5-a]pyrazin-3-yl)ethyl)-5-chloro-6-fluoro-2-isopropoxyphenyl)((2R,6S)-2,6-dimethylmorpholino)methanone], the IC50 in experiment [1] was 8 nM.

Take `Cc1nc([C@@H](C)c2cc(Cl)c(F)c(C(=O)N[C@H](C)[C@@H](C)O)c2OC(C)C)n2ccnc(N)c12` [Compound 72, 3-((S)-1-(8-amino-1-methylimidazo[1,5-a]pyrazin-3-yl)ethyl)-5-chloro-6-fluoro-N-((2R,3R)-3-hydroxybutan-2-yl)-2-isopropoxybenzamide]: the IC50 in experiment [1] amounted to 6.8 nM.

For orientation: IC50 means the concentration needed to halve the response being measured.
